Data set [1] relates to MCF-7 (human breast cancer cell). The data set can be described thus: In vitro cell anti-cancer test under illumination (MTT). The conditions noted are these: MTT cell survival rate; for killing effect on the cells under illumination: MCF-7, 30 minutes incubation, red light 660 nanometers; for killing effect on the cells without illumination: MCF-7, no illumination. Type of data set: cell-based. Here is the method: MCF-7 (human breast cancer cell) was planted in 96-well culture plates at a density of 5000 cells per well and cultured in a cell incubator for 24 hours (37° C., 5% CO2). The compound F-1 synthesized in Embodiment 1 was used, and F-1-DMSO solution was added into DMEM containing 10% fetal calf serum to prepare solutions with different concentrations, and the prepared solutions were added to the 96-well culture plates and placed in a cell incubator to incubate for 30 minutes, and then irradiated for a certain period by red light with a wavelength of 660 nanometers. After irradiation, 96 empty plates were placed in a cell incubator and continuously incubated for 12 hours. Then, 100 μl of culture medium containing 5 mg/ml MTT was added to each well, and incubated in a cell incubator for 4 hours. The culture solutions in the well of the plates were removed, 100 µl of DMSO was added to each well to fully dissolve MTT oxidation products, and then the absorbance of each well at 570 nanometers and 630 nanometers were measured with a microplate reader, and a cell survival rate was calculated.
MCF-7 (human breast cancer cell) was planted in 96-well culture plates at a density of 5000 cells per well and cultured in a cell incubator for 24 hours (37° C., 5% CO2). The compound F-2 synthesized in Embodiment 6 was used, and F-2-DMSO solution was added into DMEM containing 10% fetal calf serum to prepare solutions with different concentrations, and the prepared solutions were added to the 96-well culture plates and placed in the cell incubator to incubate for 30 minutes, and then irradiated for a certain period by red light with a wavelength of 660 nanometers. After irradiation, 96 empty plates were placed in a cell incubator and continuously incubated for 12 hours. Then, 100 μl of culture medium containing 5 mg/ml MTT was added to each well, and incubated in a cell incubator for 4 hours. The culture solutions in the well of the plates were removed, 100 µl of DMSO was added to each well to fully dissolve MTT oxidation products, and then the absorbance of each well at 570 nanometers and 630 nanometers were measured with a microplate reader, and a cell survival rate was calculated.
MCF-7 (human breast cancer cell) was planted in 96-well culture plates at a density of 5000 cells per well and cultured in a cell incubator for 24 hours (37° C., 5% CO2). The compound F-3 synthesized in Embodiment 11 was used, and […] was added into DMEM containing 10% fetal calf serum to prepare solutions with different concentrations, and the prepared solutions were added to the 96-well culture plates and placed in the cell incubator to incubate for 30 minutes, and then irradiated for a certain period by red light with a wavelength of 660 nanometers. After irradiation, 96 empty plates were placed in a cell incubator and continuously incubated for 12 hours. Then, 100 μl of culture medium containing 5 mg/ml MTT was added to each well, and incubated in a cell incubator for 4 hours. The culture solutions in the well of the plates were removed, 100 μl of DMSO was added to each well to fully dissolve MTT oxidation products, and then the absorbance of each well at 570 nanometers and 630 nanometers were measured with a microplate reader, and a cell survival rate was calculated.

The nature of data set [2]: Spectral test experiment (UV-vis spectrophotometer and fluorescence spectrometer). Particulars: in dichloromethane. Type of data set: physicochemical. Here is the method: The compound F-1 synthesized in Embodiment 1 was used, and F-1-DMSO solution was added into dichloromethane and mixed evenly. Spectral properties of the compound F-1 were tested by a UV-vis spectrophotometer and a fluorescence spectrometer. The results are shown in FIG. 2, wherein the F-1 molecules have the maximum absorption and the maximum emission at 680 nanometers and 700 nanometers in the dichloromethane respectively.
The compound F-2 synthesized in Embodiment 6 was used, and F-2-DMSO solution was added into dichloromethane and mixed evenly. Spectral properties of the […] were tested by a UV-vis spectrophotometer and a fluorescence spectrometer. The results are shown in FIG. 6, wherein the F-2 molecules have the maximum absorption and the maximum emission at 686 nanometers and 712 nanometers in the dichloromethane are respectively.
The compound F-3 synthesized in Embodiment 11 was used, and F-3-DMSO solution was added into dichloromethane and mixed evenly. Spectral properties of the […] were tested by a UV-vis spectrophotometer and a fluorescence spectrometer. The results are shown in FIG. 10, wherein the F-3 molecules have the maximum absorption and the maximum emission at 697 nanometers and 740 nanometers in the dichloromethane.

A short description of data set [3]: Self-assembled nano drug-delivery system, scanning electron microscope. The conditions noted are these: self-assembled in PBS or ultrapure water. Type of data set: physicochemical. Here is the method:
The compound F-1 synthesized in Embodiment 1 was used, and a proper amount of F-1-DMSO solution was added into a phosphate buffer (PBS) or ultrapure water as required. After shaking the mixture evenly, the compound F-1 could be self-assembled in the PBS or ultrapure water to form a nanoparticle system. It can be seen from FIG. 14 that the nanoparticles formed by the self-assembly of the compound F-1 in the nano-system are about 200 nanometers in size, regular in shape and uniform in size, and have excellent dispersion properties.

Three molecules from patent publication US11639360B2, “Oxazine compound and application thereof” (DALIAN UNIVERSITY OF TECHNOLOGY, priority 2018, dated 2023) can be followed below.

`CC/N=c1/cc2[se]c3c4c5c(cc3nc-2c2ccccc12)CCCN5CCC4` [Compound F-2]: in data set [1], the “killing effect on the cells under illumination” value is “obvious killing effect on the cells at low energy density of illumination”; the “killing effect on the cells without illumination” value was “very small killing effect on the cells without illumination, and has almost no toxicity”. In data set [2], this molecule had a maximum absorption of 686 nanometers and a maximum emission of 712 nanometers.
`CC/N=c1/cc2[te]c3c4c5c(cc3nc-2c2ccccc12)CCCN5CCC4` [Compound F-3]: in data set [1], the “killing effect on the cells under illumination” value is recorded as “obvious killing effect on the cells at low energy density of illumination” and the “killing effect on the cells without illumination” value was “a certain killing effect on the cells without illumination”. In data set [2], this molecule registered a maximum absorption of 697 nanometers and a maximum emission of 740 nanometers.
For the molecule `CC/N=c1/cc2sc3c4c5c(cc3nc-2c2ccccc12)CCCN5CCC4` [Compound F-1], in data set [1], the “killing effect on the cells under illumination” value was “obvious killing effect on the cells”; the “killing effect on the cells without illumination” value is “very small killing effect on the cells without illumination, and has almost no toxicity”. For the same molecule, the “size of nanoparticles formed by self-assembly” value in data set [3] is “about 200 nanometers”. In data set [2], this molecule showed a maximum absorption of 680 nanometers and a maximum emission of 700 nanometers.
